How the values were obtained:
[1] = test system: SK-BR-3 cells (HER2 overexpressing cell line); test: SK-BR-3 cell proliferation inhibitory activity (CellTiter-Glo, 120 hours); type: cell-based; conditions: Homo sapiens
Method: (§1) To evaluate the cell proliferation inhibitory activity of the compound according to the present invention on HER2 and EGFR kinases, the following method was performed using HER2 overexpressing cell lines (SK-BR-3, BT-474, and N-87) and EGFR expressing cell line (HaCaT).
(§2) McCOY'S 5A supplemented with 10% FBS was used for SK-BR-3 cells, RPMI-1640 medium supplemented with 20% FBS was used for BT-474 cancer cells, and RPMI-1640 medium supplemented with 10% FBS was used for N-87 cancer cells. DMEM supplemented with 10% FBS was used for HaCaT cells.
(§3) For SK-BR-3 cells, 5000 cells were aliquoted into each well of a white clear bottom 96 well plate (Corning) 48 hours before treatment with the compounds of Examples. For BT-474 cells, 5000 cells were aliquoted into each well of a white clear bottom 96 well plate (Corning) 48 hours before treatment with the compounds of Examples. For N-87 cells, 5000 cells were aliquoted into each well of a white clear bottom 96 well plate (Corning) 24 hours before treatment with the compounds of Examples. For HaCaT cells, 3000 cells were aliquoted into each well of a white clear bottom 96 well plate (Corning) 24 hours before treatment with the compounds of Examples. For SK-BR-3 cells and BT-474 cells, the compounds of Examples were diluted in dimethyl sulfoxide (three-fold dilution, a total of 11 concentrations) and injected each in an amount of 1 μl to a final concentration of 0.2 nM to 10 μM. For N-87 cells, the compounds of Examples were diluted in dimethyl sulfoxide (five-fold dilution, a total of 11 concentrations) and injected each in an amount of 0.5 μl to a final concentration of […] to 5 μM. For HaCaT cells, the compounds of Examples were diluted in dimethyl sulfoxide (three-fold dilution, a total of 11 concentrations) and injected each in an amount of 0.5 μl to a final concentration of 0.8 nM to 45 μM. For the measurement of living cells, the cells were stored at room temperature for 10 minutes using CellTiter-Glo cell viability reagent (Promega) after a certain period of time (SK-BR-3: 120 hours, BT-474: 120 hours, N-87: 72 hours, and HaCaT: 72 hours) post treatment with the compounds of Examples, and the luminescence intensity thereof was measured using a reader (SynergyNeo, Biotek). Each test was repeated three times.
(§4) The result values were calculated as a cell growth rate (%) compared to those of the control group. A graph was created using the GraphPad Prism version 5.0 program, and GI50 values were calculated.

[2] = test system: HaCaT cells (EGFR expressing cell line); test: HaCaT cell proliferation inhibitory activity (CellTiter-Glo, 72 hours); type: cell-based; conditions: Homo sapiens
Method: as §1, §2, §3, §4

Row | Structure (SMILES) | GI50 [1] | GI50 [2]
1 | C=CC(=O)N1CC(Oc2cc3c(Nc4cc(-c5cc(F)ccc5F)ccc4OC)ncnc3cc2OC)C1 [Example 10, 1-(3-((4-((2′,5′-difluoro-4-methoxy-[1,1′-biphenyl]-3-yl)amino)-7-methoxy-quinazolin-6-yl)oxy)azetidin-1-yl)prop-2-en-1-one] | ≤ 150 nM | ≤ 150 nM
2 | C=CC(=O)N1CC(Oc2cc3c(Nc4cc(-c5ccc(Cl)c(F)c5)ccc4OC)ncnc3cc2OC)C1 [Example 28, 1-(3-((4-((4′-chloro-3′-fluoro-4-methoxy-[1,1′-biphenyl]-3-yl)amino)-7-methoxy-quinazolin-6-yl)oxy)azetidin-1-yl)prop-2-en-1-one] | 150 to 1000 nM | 150 to 1000 nM
3 | C=CC(=O)Nc1cc2c(Nc3cc(-c4ccco4)ccc3OC)ncnc2cc1OCCOC [Example 275, N-(4-((5-(furan-2-yl)-2-methoxyphenyl)amino)-7-(2-methoxyethoxy)quinazolin-6-yl)acrylamide] | ≤ 150 nM | ≤ 150 nM
4 | C=CC(=O)N1CC2(C1)CN(c1cc3c(Nc4cc(-c5ccco5)ccc4OC)ncnc3cc1OC)C(=O)O2 [Example 330, 2-acryloyl-7-(4-((5-(furan-2-yl)-2-methoxyphenyl)amino)-7-methoxyquinazolin-6-yl)-5-oxa-2,7-diazaspiro[3.4]octan-6-one] | 150 to 1000 nM | 150 to 1000 nM
5 | C=CC(=O)N1CC(Oc2cc3c(Nc4cc(-c5ccc6occc6c5)ccc4OCC)ncnc3cc2OC)C1 [Example 57, 1-(3-((4-((5-(benzofuran-5-yl)-2-ethoxyphenyl)amino)-7-methoxy-quinazolin-6-yl)oxy)azetidin-1-yl)prop-2-en-1-one] | 150 to 1000 nM | 150 to 1000 nM
6 | C=CC(=O)N1CC(Oc2cc3c(Nc4cc(-c5ccn6ncnc6c5)ccc4OC4CCN(C)C4)ncnc3cc2OC)C1 (stereo not drawn) [Example 242] | 150 to 1000 nM | ≤ 150 nM
7 | C=CC(=O)N1CC(Oc2cc3c(Nc4cc(-c5ccc(F)cc5F)ccc4OC)ncnc3cc2OC)C1 [Example 13, 1-(3-((4-((2′,4′-difluoro-4-methoxy-[1,1′-biphenyl]-3-yl)amino)-7-methoxy-quinazolin-6-yl)oxy)azetidin-1-yl)prop-2-en-1-one] | ≤ 150 nM | ≤ 150 nM
8 | C=CC(=O)N1CC(Oc2cc3c(Nc4cc(-c5ccc(F)c(C#N)c5)ccc4OC)ncnc3cc2OC)C1 [Example 14, 3′-((6-((1-acryloylazetidin-3-yl)oxy)-7-methoxy-quinazolin-4-yl)amino)-4-fluoro-4′-methoxy-[1,1′-biphenyl]-3-carbonitrile] | ≤ 150 nM | ≤ 150 nM
9 | C=CC(=O)Nc1cc2c(Nc3cc(-c4ccco4)ccc3OC)ncnc2cc1OCCCN1CCOCC1 [Example 277, N-(4-((5-(furan-2-yl)-2-methoxyphenyl)amino)-7-(3-morpholinopropoxy)quinazolin-6-yl)acrylamide] | ≤ 150 nM | ≤ 150 nM
10 | C=CC(=O)N1CCC(Nc2cc3c(Nc4cc(-c5ccc(F)cc5F)ccc4OC)ncnc3cc2O[C@@H]2CCOC2)CC1 [Example 282, (R)-1-(4-((4-((2′,4′-difluoro-4-methoxy-[1,1′-biphenyl]-3-yl)amino)-7-((tetrahydrofuran-3-yl)oxy)quinazolin-6-yl)amino)piperidin-1-yl)prop-2-en-1-one] | ≤ 150 nM | ≤ 150 nM
11 | C=CC(=O)N1CC(Oc2cc3c(Nc4cc(-c5cccs5)ccc4OC4CCOCC4)ncnc3cc2OC)C1 [Example 248, 1-(3-((7-methoxy-4-((2-((tetrahydro-2H-pyran-4-yl)oxy)-5-(thiophen-2-yl)phenyl)amino)quinazolin-6-yl)oxy)azetidin-1-yl)prop-2-en-1-one] | ≤ 150 nM | ≤ 150 nM

Now from value to molecule, other results behind:

Row | GI50 [1] | Structure (SMILES) | GI50 [2]
12 | ≤ 150 nM | C=CC(=O)N1CCC(Nc2cc3c(Nc4cc(-c5ccco5)ccc4OC)ncnc3cc2O[C@H]2CCOC2)CC1 [Example 279, (S)-1-(4-((4-((5-(furan-2-yl)-2-methoxyphenyl)amino)-7-((tetrahydrofuran-3-yl)oxy)quinazolin-6-yl)amino)piperidin-1-yl)prop-2-en-1-one] | ≤ 150 nM
13 | ≤ 150 nM | C=CC(=O)N1CCC(Nc2cc3c(Nc4cc(-c5ccco5)ccc4OC)ncnc3cc2O[C@@H]2CCOC2)CC1 [Example 280, (R)-1-(4-((4-((5-(furan-2-yl)-2-methoxyphenyl)amino)-7-((tetrahydrofuran-3-yl)oxy)quinazolin-6-yl)amino)piperidin-1-yl)prop-2-en-1-one] | ≤ 150 nM
14 | ≤ 150 nM | C=CC(=O)N1CCC(Oc2cc3c(Nc4cc(-c5ccoc5C)ccc4OC)ncnc3cc2OC)CC1 [Example 84, 1-(4-((7-methoxy-4-((2-methoxy-5-(2-methylfuran-3-yl)phenyl)amino)quinazolin-6-yl)oxy)piperidin-1-yl)prop-2-en-1-one] | ≤ 150 nM
15 | ≤ 150 nM | C=CC(=O)N1CCC(Oc2cc3c(Nc4cc(-c5ccc(F)cc5)ccc4OC)ncnc3cc2OC)C1 (stereo not drawn) [Example 60, 1-(3-((4-((4′-fluoro-4-methoxy-[1,1′-biphenyl]-3-yl)amino)-7-methoxy-quinazolin-6-yl)oxy)pyrrolidin-1-yl)prop-2-en-1-one] | 150 to 1000 nM
16 | ≤ 150 nM | C=CC(=O)N1CC(Oc2cc3c(Nc4cc(-c5cccc(F)c5Cl)ccc4OC)ncnc3cc2OC)C1 [Example 18, 1-(3-((4-((2′-chloro-3′-fluoro-4-methoxy-[1,1′-biphenyl]-3-yl)amino)-7-methoxy-quinazolin-6-yl)oxy)azetidin-1-yl)prop-2-en-1-one] | ≤ 150 nM
17 | ≤ 150 nM | C=CC(=O)N1CCC(Oc2cc3c(Nc4cc(-c5ccco5)ncc4OC)ncnc3cc2OC)CC1 [Example 105, 1-(4-((4-((2-(furan-2-yl)-5-methoxypyridin-4-yl)amino)-7-methoxy-quinazolin-6-yl)oxy)piperidin-1-yl)prop-2-en-1-one] | ≤ 150 nM
18 | ≤ 150 nM | C=CC(=O)N1CC(Oc2cc3c(Nc4cc(-c5ccco5)ccc4OCC)ncnc3cc2OC)C1 [Example 55, 1-(3-((4-((2-ethoxy-5-(furan-2-yl)phenyl)amino)-7-methoxy-quinazolin-6-yl)oxy)azetidin-1-yl)prop-2-en-1-one] | ≤ 150 nM
19 | 150 to 1000 nM | C=CC(=O)N1CC(Oc2cc3c(Nc4cc(-c5cccc6ncsc56)ccc4OC)ncnc3cc2OC)C1 [Example 36, 1-(3-((4-((5-(benzo[d]thiazol-7-yl)-2-methoxyphenyl)amino)-7-methoxy-quinazolin-6-yl)oxy)azetidin-1-yl)prop-2-en-1-one] | 150 to 1000 nM
20 | ≤ 150 nM | C=CC(=O)N1CC(Oc2cc3c(Nc4cc(-c5cccs5)ccc4OC4CCN(C)C4)ncnc3cc2OC)C1 (stereo not drawn) [Example 240, 1-(3-((7-methoxy-4-((2-((1-methylpyrrolidin-3-yl)oxy)-5-(thiophen-2-yl)phenyl)amino)quinazolin-6-yl)oxy)azetidin-1-yl)prop-2-en-1-one] | ≤ 150 nM
21 | ≤ 150 nM | C=CC(=O)N1CC(Oc2cc3c(Nc4cc(-c5cccs5)c(C)cc4OC)ncnc3cc2OC)C1 [Example 52, 1-(3-((7-methoxy-4-((2-methoxy-4-methyl-5-(thiophen-2-yl)phenyl)amino)quinazolin-6-yl)oxy)azetidin-1-yl)prop-2-en-1-one] | ≤ 150 nM
22 | 150 to 1000 nM | C=CC(=O)N1CC(Oc2cc3c(Nc4cc(-c5cnn6cccnc56)ccc4OC)ncnc3cc2OC)C1 [Example 39, 1-(3-((7-methoxy-4-((2-methoxy-5-(pyrazolo[1,5-a]pyrimidin-3-yl)phenyl)amino)quinazolin-6-yl)oxy)azetidin-1-yl)prop-2-en-1-one] | 150 to 1000 nM
23 | ≤ 150 nM | C=CC(=O)N1CCC(Oc2cc3c(Nc4cc(-c5ccco5)cnc4OC)ncnc3cc2OC)CC1 [Example 104, 1-(4-((4-((5-(furan-2-yl)-2-methoxy-pyridin-3-yl)amino)-7-methoxy-quinazolin-6-yl)oxy)piperidin-1-yl)prop-2-en-1-one] | ≤ 150 nM
24 | 150 to 1000 nM | C=CC(=O)N1CCC(Oc2cc3c(Nc4cc(-c5cccc(N)c5)ccc4OC)ncnc3cc2OC)CC1 [Example 180, 1-(4-((4-((3′-amino-4-methoxy-[1,1′-biphenyl]-3-yl)amino)-7-methoxy-quinazolin-6-yl)oxy)piperidin-1-yl)prop-2-en-1-one] | > 1000 nM
